Reference: the supplement of paper PMC10627819

Legend:
S. aureus DSM 20231 [1] = assay: Bliss interaction score (quartile over a dose matrix) (fitness difference); higher = more antagonism (negative = synergy)
Summary of the method: (§1)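 The Bliss score takes observed fitness and subtracts the expected fitness, calculated as a product of single-drug fitness values. Those single-drug values were inferred from the combination data. Fitness is OD595 at entry into stationary phase divided by the plate's robust no-drug mean, capped at 1, and the score is summarised by quartiles across technical, biological and donor/recipient replicates.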

S. aureus Newman [2] = assay: as above
Summary of the method: as §1

S. pneumoniae D39V [3] = assay: as above
Summary of the method: as §1

B. subtilis 168 = assay: as above
Summary of the method: as §1

S. aureus DSM 20231 [4] = assay: fitness (endpoint OD595 vs no drug) (fraction); higher = more growth
Summary of the method: (§2)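 At 37 °C, bacteria in TSB, LB Lennox or CY were grown in 384-well plates from a starting OD595 of 0.01. OD595 was measured every 30 min for 14 h, with the first reading used as background. Fitness is the optical density at the switch to stationary phase as a fraction of the robust mean of no-drug control wells, capped at 1.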

S. aureus Newman [5] = assay: as above
Summary of the method: as §2

S. pneumoniae D39V [6] = assay: as above
Summary of the method: as §2
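Wherever Bliss interaction score (quartile over a dose matrix) is given: first quartile when negative (synergy) and third quartile when positive (antagonism).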
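Wherever fitness (endpoint OD595 vs no drug) is given: OD595 on entry to stationary phase over no-drug wells; at most 1.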

CC1(C)S[C@@H]2[C@H](NC(=O)[C@H](N)c3ccc(O)cc3)C(=O)N2[C@H]1C(=O)O [Amoxicillin] + CN1C2=CC=CC=C2N=C3C1=CC=CC3=O [Pyocyanin]
Conditions	Bliss interaction score
B. subtilis 168	-0.0439
S. aureus DSM 20231 [1]	0.0915
S. aureus Newman [2]	0.0587
S. pneumoniae D39V [3]	0.0791

Conditions	fitness
S. aureus DSM 20231 [4], first compound 0.0625 µg/mL, partner 1.25 µg/mL	0.673
S. aureus DSM 20231 [4], first compound 0.0625 µg/mL, partner 2.5 µg/mL	0.635
S. aureus DSM 20231 [4], first compound 0.0625 µg/mL, partner 5 µg/mL	0.435
S. aureus DSM 20231 [4], first compound 0.125 µg/mL, partner 1.25 µg/mL	0.418
S. aureus DSM 20231 [4], first compound 0.125 µg/mL, partner 2.5 µg/mL	0.417
S. aureus DSM 20231 [4], first compound 0.125 µg/mL, partner 5 µg/mL	0.254
S. aureus DSM 20231 [4], first compound 0.25 µg/mL, partner 1.25 µg/mL	0.216
S. aureus DSM 20231 [4], first compound 0.25 µg/mL, partner 2.5 µg/mL	0.195
S. aureus DSM 20231 [4], first compound 0.25 µg/mL, partner 5 µg/mL	0.121
S. aureus Newman [5], first compound 0.0625 µg/mL, partner 1.25 µg/mL	0.829
S. aureus Newman [5], first compound 0.0625 µg/mL, partner 2.5 µg/mL	0.71
S. aureus Newman [5], first compound 0.0625 µg/mL, partner 5 µg/mL	0.486
S. aureus Newman [5], first compound 0.125 µg/mL, partner 2.5 µg/mL	0.767
S. aureus Newman [5], first compound 0.125 µg/mL, partner 5 µg/mL	0.374
S. pneumoniae D39V [6], first compound 0.0008 µg/mL, partner 0.325 µg/mL	0.992
S. pneumoniae D39V [6], first compound 0.0008 µg/mL, partner 0.65 µg/mL	0.987
S. pneumoniae D39V [6], first compound 0.0015 µg/mL, partner 0.325 µg/mL	≥ 1
S. pneumoniae D39V [6], first compound 0.0015 µg/mL, partner 0.65 µg/mL	0.978
S. pneumoniae D39V [6], first compound 0.0015 µg/mL, partner 1.3 µg/mL	0.935
S. pneumoniae D39V [6], first compound 0.003 µg/mL, partner 0.325 µg/mL	≥ 1
S. pneumoniae D39V [6], first compound 0.003 µg/mL, partner 0.65 µg/mL	0.974
S. pneumoniae D39V [6], first compound 0.003 µg/mL, partner 1.3 µg/mL	0.945

one replicate
Conditions	fitness
S. aureus DSM 20231 [4], first compound 0.5 µg/mL, partner 1.25 µg/mL	0.0229
S. aureus DSM 20231 [4], first compound 0.5 µg/mL, partner 2.5 µg/mL	0.0134
S. aureus DSM 20231 [4], first compound 0.5 µg/mL, partner 5 µg/mL	0.0115
S. pneumoniae D39V [6], first compound 0.0008 µg/mL, partner 1.3 µg/mL	0.907
S. pneumoniae D39V [6], first compound 0.006 µg/mL, partner 0.325 µg/mL	0.624
S. pneumoniae D39V [6], first compound 0.006 µg/mL, partner 0.65 µg/mL	0.63
S. pneumoniae D39V [6], first compound 0.006 µg/mL, partner 1.3 µg/mL	0.734

CC1(C)S[C@@H]2[C@H](NC(=O)[C@H](N)c3ccc(O)cc3)C(=O)N2[C@H]1C(=O)O [Amoxicillin] + CN(N=O)C(=O)N[C@@H](C=O)[C@@H](O)[C@H](O)[C@H](O)CO [Streptozotocin]
Conditions	Bliss interaction score
B. subtilis 168	0.0362
S. aureus DSM 20231 [1]	-0.0844
S. aureus Newman [2]	-0.0299
S. pneumoniae D39V [3]	-0.0885

fitness
Conditions	first compound 0.0008 µg/mL	first compound 0.0015 µg/mL	first compound 0.003 µg/mL	first compound 0.0625 µg/mL	first compound 0.125 µg/mL	first compound 0.25 µg/mL
S. aureus DSM 20231 [4], partner 0.15 µg/mL	–	–	–	0.434	0.362	0.0212
S. aureus DSM 20231 [4], partner 0.3 µg/mL	–	–	–	0.496	0.286	0.0296
S. aureus DSM 20231 [4], partner 0.6 µg/mL	–	–	–	0.41	0.234	0.0211
S. aureus Newman [5], partner 0.15 µg/mL	–	–	–	0.769	0.736	0.753
S. aureus Newman [5], partner 0.3 µg/mL	–	–	–	0.669	0.677	0.64
S. aureus Newman [5], partner 0.6 µg/mL	–	–	–	0.523	0.524	0.491
S. pneumoniae D39V [6], partner 1.2 µg/mL	0.935	0.866	0.844	–	–	–
S. pneumoniae D39V [6], partner 2.4 µg/mL	0.963	0.945	0.929	–	–	–
S. pneumoniae D39V [6], partner 4.8 µg/mL	0.928	0.877	0.812	–	–	–

fitness, one replicate
Conditions	partner 0.15 µg/mL	partner 0.3 µg/mL	partner 0.6 µg/mL	partner 1.2 µg/mL	partner 2.4 µg/mL	partner 4.8 µg/mL
S. aureus DSM 20231 [4], first compound 0.5 µg/mL	0.0024	0.0025	0	–	–	–
S. pneumoniae D39V [6], first compound 0.006 µg/mL	–	–	–	0.376	0.405	0.365
